Experimental data: ChEMBL document CHEMBL5042528, “Optimization of 2-Amino-4,6-diarylpyrimidine-5-carbonitriles as Potent and Selective A1 Antagonists” (J Med Chem, 2022)

Assays:
Adenosine receptor A2a [1] = molecular target: T1, Adenosine receptor A2a (Homo sapiens, UniProt P29274)
Adenosine receptor A1 [2] = molecular target: T2, Adenosine receptor A1 (Homo sapiens, UniProt P30542); test: Displacement of [3H]DPCPX from A1 adenosine receptor (unknown origin) expressed in CHO cell membrane incubated for 60 mins at room temperature by NXT microplate scintillation counter analysis; assay type: cell membranes
T2 sequence (P30542 whole entry): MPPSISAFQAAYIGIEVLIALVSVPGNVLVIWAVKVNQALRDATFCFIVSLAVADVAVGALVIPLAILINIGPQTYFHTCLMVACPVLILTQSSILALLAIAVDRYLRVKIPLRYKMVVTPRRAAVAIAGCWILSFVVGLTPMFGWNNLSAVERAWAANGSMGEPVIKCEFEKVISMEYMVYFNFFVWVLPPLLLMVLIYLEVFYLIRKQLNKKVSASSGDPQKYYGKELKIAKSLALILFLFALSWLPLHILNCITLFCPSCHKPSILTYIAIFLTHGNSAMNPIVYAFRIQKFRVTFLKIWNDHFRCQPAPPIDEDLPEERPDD

Adenosine receptor A1 [3] = molecular target: T2, Adenosine receptor A1
Adenosine receptor A2a [4] = molecular target: T1, Adenosine receptor A2a; remark: listed apart in the source
in vitro = conditions: human, liver microsomes
Description: Stability of the compound in human liver microsome assessed as compound remaining measured after 60 mins by UPLC-MS/MS analysis

T1 sequence (P29274 whole entry): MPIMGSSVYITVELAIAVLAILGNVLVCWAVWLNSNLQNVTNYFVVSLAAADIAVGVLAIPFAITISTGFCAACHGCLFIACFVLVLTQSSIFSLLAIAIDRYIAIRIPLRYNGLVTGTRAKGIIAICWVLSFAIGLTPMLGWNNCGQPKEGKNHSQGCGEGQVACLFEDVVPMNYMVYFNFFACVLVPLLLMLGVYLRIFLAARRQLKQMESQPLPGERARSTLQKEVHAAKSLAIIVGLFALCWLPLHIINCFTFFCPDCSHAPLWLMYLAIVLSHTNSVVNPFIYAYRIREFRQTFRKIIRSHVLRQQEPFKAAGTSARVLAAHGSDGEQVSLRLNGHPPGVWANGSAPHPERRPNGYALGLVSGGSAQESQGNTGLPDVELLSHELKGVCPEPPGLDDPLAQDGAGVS

Question: Which Ki (Adenosine receptor A2a [1]) does the source give for `N#Cc1c(-c2ccccc2)nc(NC(=O)C2CCCC2)nc1-c1ccc2c(c1)OCO2` here?
Answer: The Ki was 159 nM.

Question: With `Nc1nc(-c2ccccc2)c2c(n1)-c1ccccc1C2=O` as the compound, how does the Ki (Adenosine receptor A1 [2]) read?
Answer: The Ki was 0.1 nM.

Question: Which results are given for `N#Cc1c(-c2ccccc2)nc(Nc2ccccc2)nc1-c1cccc(O)c1`?
Answer: Ki (Adenosine receptor A1 [3]): 18.3 nM; Ki (Adenosine receptor A2a [4]): 71.2 nM

Question: With `C[C@]12CC[C@H]3[C@@H](CCC4=CC(=O)CC[C@@]43C)[C@@H]1CC[C@@H]2O` [TESTOSTERONE] as the compound, how does the remaining at 1 h (in vitro) read?
Answer: Its remaining at 1 h is 3.7%.
